Data reported in publication PMC8198649, “Development of Halogenated Pyrazolines as Selective Monoamine Oxidase-B Inhibitors: Deciphering via Molecular Dynamics Approach” (Molecules, 2021).

Assays:
[1] = parameters: method as in PMID 12667689; conditions: PAMPA-BBB; cited from earlier work
MAO-B [2] = target: T1, MAO-B (Homo sapiens, UniProt P27338); assay: MAO-B inhibition assay (benzylamine substrate) and kinetics; assay type: biochemical; conditions: for remaining activity at 10 µM: 10 µM compound, read-out: Residual Activity at 10 µM (%) MAO-B; for IC50: reference compounds after preincubation for 30 min with enzymes; for Ki: Lineweaver–Burk and secondary plots; for Type of MAO-B inhibition: Lineweaver–Burk plots
T1 construct: purchased Sigma-Aldrich (St. Louis, MO, USA)
T1 sequence (P27338 1-520): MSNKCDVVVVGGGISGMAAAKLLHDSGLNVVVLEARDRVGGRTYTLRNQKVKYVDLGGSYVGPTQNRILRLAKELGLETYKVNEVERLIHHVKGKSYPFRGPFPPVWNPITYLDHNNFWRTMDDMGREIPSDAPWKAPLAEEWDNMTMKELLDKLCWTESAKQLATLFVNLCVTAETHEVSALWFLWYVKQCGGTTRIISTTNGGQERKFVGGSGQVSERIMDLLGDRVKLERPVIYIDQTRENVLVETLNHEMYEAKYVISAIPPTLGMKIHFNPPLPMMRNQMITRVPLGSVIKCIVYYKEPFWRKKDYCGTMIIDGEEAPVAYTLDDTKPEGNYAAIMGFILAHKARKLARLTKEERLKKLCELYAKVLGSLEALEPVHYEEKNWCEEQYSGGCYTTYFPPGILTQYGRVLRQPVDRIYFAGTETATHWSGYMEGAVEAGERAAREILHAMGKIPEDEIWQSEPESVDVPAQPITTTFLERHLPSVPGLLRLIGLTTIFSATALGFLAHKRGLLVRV
Source text: (§1) The enzymes and chemicals were purchased from Sigma-Aldrich (St. Louis, MO, USA).

AChE = AChE (Electrophorus electricus, UniProt O42275); assay: AChE inhibition; assay type: biochemical; conditions: 10 µM compound; read-out: Residual Activity at 10 µM (%) AChE
Chain of AChE (O42275 24-633): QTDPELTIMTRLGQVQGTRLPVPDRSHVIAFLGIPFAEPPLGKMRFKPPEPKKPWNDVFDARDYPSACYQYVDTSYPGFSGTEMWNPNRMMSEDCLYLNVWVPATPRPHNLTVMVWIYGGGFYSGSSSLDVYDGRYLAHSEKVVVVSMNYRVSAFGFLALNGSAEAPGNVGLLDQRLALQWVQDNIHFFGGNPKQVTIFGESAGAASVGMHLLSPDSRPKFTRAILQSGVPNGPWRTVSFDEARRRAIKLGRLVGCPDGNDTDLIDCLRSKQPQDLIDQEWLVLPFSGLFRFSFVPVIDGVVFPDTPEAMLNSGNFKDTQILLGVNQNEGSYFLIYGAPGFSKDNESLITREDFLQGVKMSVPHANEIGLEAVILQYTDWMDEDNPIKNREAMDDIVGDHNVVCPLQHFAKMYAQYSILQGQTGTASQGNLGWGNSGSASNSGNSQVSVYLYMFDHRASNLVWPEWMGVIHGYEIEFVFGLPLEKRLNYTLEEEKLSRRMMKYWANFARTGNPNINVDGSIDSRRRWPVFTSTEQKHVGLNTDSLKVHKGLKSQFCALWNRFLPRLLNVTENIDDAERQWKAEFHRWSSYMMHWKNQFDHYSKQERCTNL

[3] = Parallel artificial membrane permeability assay (PAMPA), BBB; conditions: for Papp: PAMPA
Source text: The CNS bioavailability of the molecules was confirmed by a parallel artificial membrane permeability assay (PAMPA) [40].

recombinant human MAO-A = target: T2, recombinant human MAO-A (Homo sapiens, UniProt P21397); assay: MAO-A inhibition assay (kynuramine substrate) and kinetics; assay type: biochemical; conditions: for remaining activity at 10 µM: 10 µM compound, read-out: Residual Activity at 10 µM (%) MAO-A; for IC50: reference compounds after preincubation for 30 min with enzymes; for Ki: Lineweaver–Burk and secondary plots; for Type of MAO-A inhibition: Lineweaver–Burk plots
T2 construct: purchased Sigma-Aldrich (St. Louis, MO, USA)
T2 sequence (P21397 1-527): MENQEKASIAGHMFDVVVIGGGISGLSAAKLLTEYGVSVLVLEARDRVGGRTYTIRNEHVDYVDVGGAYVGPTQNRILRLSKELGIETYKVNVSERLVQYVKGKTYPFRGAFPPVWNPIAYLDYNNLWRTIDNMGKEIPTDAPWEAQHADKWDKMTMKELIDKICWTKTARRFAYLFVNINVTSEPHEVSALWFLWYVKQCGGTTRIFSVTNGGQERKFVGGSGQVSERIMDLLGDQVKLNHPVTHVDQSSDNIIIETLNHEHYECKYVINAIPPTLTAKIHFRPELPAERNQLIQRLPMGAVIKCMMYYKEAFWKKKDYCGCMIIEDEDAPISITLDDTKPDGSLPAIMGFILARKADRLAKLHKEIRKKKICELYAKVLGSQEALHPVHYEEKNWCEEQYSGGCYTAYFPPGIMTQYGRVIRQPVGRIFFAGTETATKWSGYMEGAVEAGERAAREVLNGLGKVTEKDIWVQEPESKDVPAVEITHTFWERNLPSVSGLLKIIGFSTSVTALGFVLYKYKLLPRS
Source text: as §1

MAO-B [4] = target: T1, MAO-B; assay: Reversibility of MAO-B inhibition by dialysis; assay type: biochemical
Experimental: Reversibilities of EH7 were analyzed using a dialysis method after preincubating with MAO-B for 30 min, as previously described. […] The relative activities for undialyzed (AU) and dialyzed (AD) samples were compared to determine the reversibility patterns.

SMILES	Bibliography Pe [1] [×10⁻⁶ cm/s]	SI (selectivity index) (MAO-B [2])	remaining activity at 10 µM (MAO-B [2]) [%]	IC50 (MAO-B [2]) [µM]	remaining activity at 10 µM (AChE) [%]	Papp [3] [×10⁻⁶ cm/s]	remaining activity at 10 µM (recombinant human MAO-A) [%]	IC50 (recombinant human MAO-A) [µM]	Ki (MAO-B [2]) [µM]	Type of MAO-B inhibition (MAO-B [2])	Ki (recombinant human MAO-A) [µM]	Type of MAO-A inhibition (recombinant human MAO-A)	Relative activity of undialyzed sample (AU) (MAO-B [4]; EH7 0.15 µM, lazabemide 0.20 µM, pargyline 0.30 µM, 30 min preincubation) [%]	Relative activity of dialyzed sample (AD) (MAO-B [4]; EH7 0.15 µM, lazabemide 0.20 µM, pargyline 0.30 µM, 30 min preincubation, dialysis) [%]	Reversibility of MAO-B inhibition (MAO-B [4]; dialysis)	Prediction (CNS permeability) ([3]; PAMPA-BBB)	Experimental Pe ([3]; PAMPA-BBB)
NCCc1ccc(O)c(O)c1 [Dopamine]	0.2	–	–	–	–	–	–	–	–	–	–	–	–	–	–	–	–
CCOc1ccc(C2=NNC(c3ccccc3)C2)cc1 (stereo not shown) [EH1, 3-(4-ethoxyphenyl)-5-phenyl-4,5-dihydro-1H-pyrazole]	–	>7.43	33.7 ± 0.96	5.38 ± 0.16	81 ± 6.21	10.3 ± 0.33	99.1 ± 0.27	> 40	–	–	–	–	–	–	–	–	–
CCOc1ccc(C2=NNC(c3ccc(Cl)cc3)C2)cc1 (stereo not shown) [EH6, 5-(4-chlorophenyl)-3-(4-ethoxyphenyl)-4,5-dihydro-1H-pyrazole]	–	–	19.4 ± 1.01	0.4 ± 0.051	63.5 ± 4.99	14.3 ± 0.8	68.1 ± 0.18	22.3 ± 0.12	0.19 ± 0.016	competitive inhibitor	10.8 ± 1.03	competitive inhibitor	–	–	–	–	–
CCOc1ccc(C2=NNC(c3ccc(F)cc3)C2)cc1 (stereo not shown) [EH7, 3-(4-ethoxyphenyl)-5-(4-fluorophenyl)-4,5-dihydro-1H-pyrazole]	–	133.0	4.03 ± 0.53	0.063 ± 0.0042	74 ± 0.71	14.1 ± 0.71	46.9 ± 1.25	8.38 ± 0.88	0.034 ± 0.0067	competitive inhibitor	3.64 ± 0.18	competitive inhibitor	12.5	89.5	reversible inhibitor	–	–
CCOc1ccc(C2=NNC(c3ccc(Br)cc3)C2)cc1 (stereo not shown) [EH8, 5-(4-bromophenyl)-3-(4-ethoxyphenyl)-4,5-dihydro-1H-pyrazole]	–	6.3	11.3 ± 0.13	0.69 ± 0.017	53.7 ± 2.15	14.6 ± 0.26	33.5 ± 0.65	4.31 ± 0.013	–	–	–	–	–	–	–	–	–
CN1C(C(=O)Nc2ccccn2)=C(O)c2ccccc2S1(=O)=O [Piroxicam, reference compound]	2.5	–	–	–	–	2.43 ± 0.3	–	–	–	–	–	–	–	–	–	CNS+/−	–
CC(=O)[C@H]1CC[C@H]2[C@@H]3CCC4=CC(=O)CC[C@]4(C)[C@H]3CC[C@]12C [Progesterone, reference compound]	–	–	–	–	–	–	–	–	–	–	–	–	–	–	–	–	9.02 ± 0.11 ×10^−6 cm/s
